The record followed here is patent US7220824B1, “Integrin-mediated drug targeting” (Bayer Aktiengesellschaft, priority 2000, dated 2007).

Like-named read-outs stand apart in the source and are kept apart here.

For test [1], the system named is hemopoietic stem cells (bone marrow cells). The experiment in a line: CSF-induced proliferation of hemopoietic stem cells. The following applies: Bone marrow cell, 168 h. The test is classed as cell-based, mice. As for the experimental part: Bone marrow cells are flushed out of the femur of mice. 10^5 cells are incubated in McCoy 5A medium (0.3% agar) together with recombinant murine GM-CSF (Genzyme; parent cell colony formation) and the substances (10^−4 to 100 μg/ml) at 37° C. and 7% CO2. 7 days later, the colonies (<50 cells) and clusters (17–50 cells) are counted.

For test [2], the target named is T1, αvβ3 receptor (αvβ3 from human A375 cells) (Homo sapiens, UniProt P05106+P06756).
T1 construct: αvβ3 from human A375 cells was purified analogously to a procedure which was described by Wong et al; endogenous in cells; host or cells: human A375 cells; the receptor was purified from the cells and used detergent-solubilised (n-octyl-glucopyranoside)
Put plainly: αvβ3 binding test (echistatin displacement, WGA SPA beads). As for the experimental part:
αvβ3 from human A375 cells was purified analogously to a procedure which was described by Wong et al. (Molecular Pharmacology, 50, 529–537 (1996)). In each case, 10 μl of αvβ3 (5 ng) in TBS pH 7.6, 2 mM CaCl2, 1 mM MgCl2, 1% n-octyl-glucopyranoside (Sigma); 10 μl of test substance in TBS pH 7.6, 0.1% DMSO and 45 μl of TBS pH 7.6, 2 mM CaCl2, 1 mM MgCl2, 1 mM MnCl2 were incubated at room temperature for 1 h. In each case, 25 μl of WGA SPA beads (Amersham, 4 mg/ml) and 10 μl of echistatin ([…], Amersham, chloramine-T labelled) were then added. After 16 hours at room temperature, the samples were measured in a scintillation measuring apparatus (Wallac 1450).

The test system of test [3] is HT 29. The experiment in a line: Growth inhibition test (MTT), cytotoxic action on tumour cell lines. Type of test: cell-based. The following applies: Homo sapiens, HT-29, 144 h, read-out: IC50 values of the cytotoxic action on tumour cell lines, HT 29. As for the experimental part:
(§1) The human large intestine cell lines SW 480 and HT29 (ATCC No. CCL 228 and HTB38), the human breast cell lines MDA-MB 231, MCF-7 and BT20 (ATCC No. HTB-, 26, 22 and 23) and the mouse melanoma cell line B16F 10 (CRL 6475) were grown to confluence in Roux dishes in RPMI 1640 medium with addition of 10% FCS. They were then trypsinized and taken up in RPMI plus 10% FCS to a cell count of 50,000 cells or, for B16F10, 20,000 cells per ml. 100 μl of cell suspension/well were added to a 96 microwell plate and incubated at 37° C. for 1 day in a CO2 incubator. A further 100 μl of RPMI medium and 1 μl of DMSO were then added with the test substances. The growth was checked after day 6. For this, 25 μl of MTT solution (3-(4,5-dimethylthiazol-2-yl)-2,5-diphenyltetrazolium bromide) was added to each well at a starting concentration of 5 mg/ml of H2O. The plate was incubated at 37° C. for 5 hours in a CO2 incubator. The medium was then aspirated and 100 μl of i-propanol/well were added. After shaking with 100 μl of H2O for 30 min, the extinction was measured at 595-nm using a Multiplate Reader (BIO-RAD 3550-UV).
(§2) The cytostatic action is indicated in Table 2 as an IC50 value, in each case for the individual cell lines.

Test [4] has as its system BT20. The description is as above. The following applies: Homo sapiens, BT-20, 144 h, read-out: IC50 values of the cytotoxic action on tumour cell lines, BT20. The test is classed as cell-based. As for the experimental part: as §1, §2
Test [5] deals with SW480. The test is described as above. The test is classed as cell-based. The following applies: Homo sapiens, SW480, 144 h, read-out: IC50 values of the cytotoxic action on tumour cell lines, SW480. As for the experimental part: as §1, §2
For test [6], the system named is MDA-MB 231. The test is described as above. The test is classed as cell-based. The following applies: Homo sapiens, MDA-MB-231, 144 h, read-out: IC50 values of the cytotoxic action on tumour cell lines, MDA-MB 231. On the procedure: as §1, §2
Test [7] relates to MCF7. Described as above. The test is classed as cell-based. The following applies: Homo sapiens, MCF7, 144 h, read-out: IC50 values of the cytotoxic action on tumour cell lines, MCF7. As for the experimental part:
as §1, §2

The subject of test [8] is B16F10. The description is as above. Type of test: cell-based. The following applies: Mus musculus, B16-F10, 144 h, read-out: IC50 values of the cytotoxic action on tumour cell lines, B16F10. As for the experimental part: as §1, §2
The subject of test [9] is human breast cancer xenograft MX1. The experiment in a line: In-vivo inhibition of tumour growth using a nude mouse model. Details: species or system athymic nude mice (NMRI nu/nu strain). The following applies: subcutaneous MX1 xenograft in nude mice; 40 mg/kg given on day 1–3 and 14–16; T/C in percent. From the text: In all in-vivo experiments for investigating the inhibition of tumour growth, athymic nude mice (NMRI nu/nu strain) were used. The tumour was developed by serial passage in nude mice. The human origin of the tumour was confirmed by isoenzymatic and immunohistochemical methods.
The tumour was implanted subcutaneously in both flanks of nu/nu nude mice 6 to 8 weeks old. The treatment was started, depending on the doubling time, as soon as the tumours had reached a diameter of 5–7 mm. The mice were assigned to the treatment group or the control group (5 mice per group having 8–10 assessable tumours) by randomization. The individual tumours of the control group all grew progressively.
The size of the tumours was measured in two dimensions by means of a slide gauge. The tumour volume, which correlated well with the cell count, was then used for all assessments. The volume was calculated according to the formula “length×breadth×breadth/2” ([a×b^2]/2, a and b represent two diameters arranged at right angles).
The values of the relative tumour volume (RTV) were calculated for each individual tumour by dividing the tumour size on day X with the tumour size on day 0 (at the time of randomization). […]
The inhibition of the increase of the tumour volume (tumour volume of the test group/control group, T/C, in percent) was the final measured value. […]

[10] abbreviates: Mus musculus, read-out: IC50, CSF-induced proliferation of hemopoietic stem cells, mouse bone marrow cells, recombinant murine GM-CSF, 7 days, colony count.
Where [11] appears, read: αvβ3 purified from human A375 cells, labelled echistatin, read-out: IC50 values of the binding to the αvβ3 receptor.

T1 sequence (P06756 31-889 limits assumed): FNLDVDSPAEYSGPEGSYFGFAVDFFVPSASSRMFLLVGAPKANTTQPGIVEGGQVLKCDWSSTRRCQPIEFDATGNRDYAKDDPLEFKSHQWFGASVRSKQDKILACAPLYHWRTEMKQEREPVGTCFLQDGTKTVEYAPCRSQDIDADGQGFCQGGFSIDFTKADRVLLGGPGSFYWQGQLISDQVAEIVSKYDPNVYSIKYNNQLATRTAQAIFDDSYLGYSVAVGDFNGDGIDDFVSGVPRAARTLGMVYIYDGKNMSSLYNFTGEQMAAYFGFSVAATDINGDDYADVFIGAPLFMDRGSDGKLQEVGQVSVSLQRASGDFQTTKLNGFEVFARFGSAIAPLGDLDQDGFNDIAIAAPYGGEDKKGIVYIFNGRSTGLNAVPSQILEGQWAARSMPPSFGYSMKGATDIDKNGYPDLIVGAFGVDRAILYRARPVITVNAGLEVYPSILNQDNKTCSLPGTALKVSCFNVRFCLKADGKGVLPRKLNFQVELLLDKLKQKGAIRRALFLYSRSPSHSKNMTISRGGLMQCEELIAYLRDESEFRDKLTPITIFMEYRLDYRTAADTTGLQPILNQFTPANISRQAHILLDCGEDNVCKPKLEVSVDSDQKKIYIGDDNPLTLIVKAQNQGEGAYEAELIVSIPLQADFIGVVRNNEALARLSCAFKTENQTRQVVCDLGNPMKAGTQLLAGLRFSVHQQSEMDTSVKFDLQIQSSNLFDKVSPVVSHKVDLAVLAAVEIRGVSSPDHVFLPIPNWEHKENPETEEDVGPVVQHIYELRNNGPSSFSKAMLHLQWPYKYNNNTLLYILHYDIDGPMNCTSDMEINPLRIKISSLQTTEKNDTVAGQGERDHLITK
T1 sequence (P06756 891-1048 partner limits assumed): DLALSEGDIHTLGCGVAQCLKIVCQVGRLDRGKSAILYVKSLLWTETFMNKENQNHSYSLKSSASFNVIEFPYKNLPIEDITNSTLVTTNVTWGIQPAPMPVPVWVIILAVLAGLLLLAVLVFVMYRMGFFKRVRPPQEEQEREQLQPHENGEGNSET
T1 sequence (P05106 27-788): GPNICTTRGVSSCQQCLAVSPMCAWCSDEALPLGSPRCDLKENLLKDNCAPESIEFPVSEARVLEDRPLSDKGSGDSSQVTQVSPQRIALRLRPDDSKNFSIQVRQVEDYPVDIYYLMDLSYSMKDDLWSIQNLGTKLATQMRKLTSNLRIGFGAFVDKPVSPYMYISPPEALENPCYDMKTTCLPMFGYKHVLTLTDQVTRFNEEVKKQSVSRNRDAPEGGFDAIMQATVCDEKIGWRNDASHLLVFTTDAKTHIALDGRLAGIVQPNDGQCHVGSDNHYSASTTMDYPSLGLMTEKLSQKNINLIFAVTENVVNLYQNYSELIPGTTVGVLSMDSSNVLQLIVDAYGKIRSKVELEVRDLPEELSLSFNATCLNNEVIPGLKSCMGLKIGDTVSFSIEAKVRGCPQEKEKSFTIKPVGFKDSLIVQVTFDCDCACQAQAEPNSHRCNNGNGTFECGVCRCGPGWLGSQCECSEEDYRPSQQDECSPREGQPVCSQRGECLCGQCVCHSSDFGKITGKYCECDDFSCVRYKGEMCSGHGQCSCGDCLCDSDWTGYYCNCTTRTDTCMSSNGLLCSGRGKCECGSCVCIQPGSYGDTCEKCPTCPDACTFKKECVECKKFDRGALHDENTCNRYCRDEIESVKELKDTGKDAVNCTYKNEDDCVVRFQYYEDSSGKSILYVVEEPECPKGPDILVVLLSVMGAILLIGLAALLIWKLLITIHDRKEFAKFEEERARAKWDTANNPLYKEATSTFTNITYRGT

Regarding `CCCNC(=O)Nc1cccc(S(=O)(=O)Nc2cccc(C(CC(=O)O)NC(=O)Nc3ccc(NC(=S)N[C@@H](Cc4c[nH]cn4)C(=O)N[C@H](C(=O)O[C@]4(CC)C(=O)OCc5c4cc4n(c5=O)Cc5cc6ccccc6nc5-4)C(C)C)cc3)c2)c1` (some centres unmarked) [Example 3.13], the IC50 in test [1] (setting [10]) is 0.04 mg/L; in [2] it was 0.014 µM; in test [3] it was 0.09 µM; in test [4], 0.15 µM; in test [5], 0.2 µM; in [6], 0.2 µM. For the same compound, the IC50 in test [7] is 0.1 µM; in [8] it was 0.2 µM.
Turning to `CCCNC(=O)Nc1cccc(S(=O)(=O)Nc2cccc(C(CC(=O)O)NC(=O)CCCC(=O)N[C@@H](CC(C)C)C(=O)NCC(=O)N[C@@H](CC(C)C)C(=O)O[C@]3(CC)C(=O)OCc4c3cc3n(c4=O)Cc4cc5ccccc5nc4-3)c2)c1` (some centres unmarked) [Example 3.21], the IC50 in test [1] (setting [10]) stood at 0.08 mg/L; in test [2] (setting [11]), 0.549 µM.
Turning to `CCCNC(=O)Nc1cccc(S(=O)(=O)Nc2cccc(C(CC(=O)O)NC(=O)CCCC(=O)NCC(=O)N[C@@H](CC(C)C)C(=O)O[C@]3(CC)C(=O)OCc4c3cc3n(c4=O)Cc4cc5ccccc5nc4-3)c2)c1` (some centres unmarked) [Example 3.20], the IC50 in test [1] (setting [10]) was 0.1 mg/L; in test [2] (setting [11]), 0.265 µM.
Turning to `CC[C@@]1(O)C(=O)OCc2c1cc1n(c2=O)Cc2cc3ccccc3nc2-1` [Camptothecin, 20(S)-Camptothecin, reference compound], the IC50 in test [1] (mouse bone marrow cells, recombinant murine GM-CSF, 7 days, colony count, read-out: IC50, CSF-induced proliferation of hemopoietic stem cells) worked out at 0.0003 mg/L.
With `CC[C@@]1(OC(=O)[C@@H](NC(=O)[C@H](Cc2c[nH]cn2)NC(=S)Nc2ccc(NC(=O)NC(CC(=O)O)c3cccc(NS(=O)(=O)c4cccc(NC(=N)N)c4)c3)cc2)C(C)C)C(=O)OCc2c1cc1n(c2=O)Cc2cc3ccccc3nc2-1` (some centres unmarked) [Example 3.5], the IC50 in [1] (setting [10]) is 0.02 mg/L; in [2], 0.036 µM; in test [3] it was 0.15 µM; in test [4], 0.5 µM; in test [5] it was 0.2 µM; in [6] it was 0.15 µM. The IC50 in [7] amounted to 0.15 µM; in test [8], 0.9 µM.
As to `CC[C@@]1(OC(=O)[C@@H](NC(=O)[C@H](Cc2cnc[nH]2)NC(=S)Nc2cccc(C(CC(=O)O)NS(=O)(=O)c3ccc(-c4cccc(NC(=O)Nc5nc6ccccc6[nH]5)c4)cc3)c2)C(C)C)C(=O)OCc2c1cc1n(c2=O)Cc2cc3ccccc3nc2-1` (some centres unmarked) [Example 3.8], the IC50 in [1] (setting [10]) was 0.025 mg/L; in test [2] it was 0.025 µM; in [3], 0.2 µM; in test [4] it was 0.4 µM; in test [5], 0.35 µM; in [6], 0.2 µM. In addition, the IC50 was 0.2 µM in test [7] and 0.8 µM in test [8]. In addition, the “optimal T/C (tumour volume of the test group/control group)” value in test [9] is given as 15.9.
As for `CCCNC(=O)Nc1cccc(S(=O)(=O)Nc2cccc(C(CC(=O)O)NC(=O)CCCC(=O)NCC(=O)N[C@@H](CC(C)C)C(=O)N[C@H](C(=O)O[C@]3(CC)C(=O)OCc4c3cc3n(c4=O)Cc4cc5ccccc5nc4-3)C(C)C)c2)c1` (some centres unmarked) [Example 3.22], the IC50 stood at 0.006 mg/L in test [1] (setting [10]) and 0.531 µM in test [2] (setting [11]).
As to `CC[C@@]1(OC(=O)[C@@H](NC(=O)[C@H](Cc2c[nH]cn2)NC(=O)Nc2cccc(-c3cccc(S(=O)(=O)NC(CC(=O)O)c4ccccc4)c3)c2)C(C)C)C(=O)OCc2c1cc1n(c2=O)Cc2cc3ccccc3nc2-1` (some centres unmarked) [Example 2.10], the IC50 in test [2] (setting [11]) is 0.101 µM; in test [3], 0.7 µM; in [4], 1 µM; in [5] it was 1 µM; in test [6] it was 0.4 µM; in test [7], 1.5 µM. The IC50 in [8] came to 2 µM.
For the compound `CCCNC(=O)Nc1cccc(S(=O)(=O)Nc2cccc(C(CC(=O)O)NC(=O)CCCC(=O)N3CCC[C@H]3C(=O)N[C@@H](CC(C)C)C(=O)NCC(=O)N[C@@H](CC(C)C)C(=O)O[C@]3(CC)C(=O)OCc4c3cc3n(c4=O)Cc4cc5ccccc5nc4-3)c2)c1` (some centres unmarked) [Example 3.23], the IC50 in test [1] (setting [10]) was 0.006 mg/L; in test [2] it was 0.355 µM.
For `CCCNC(=O)Nc1cccc(S(=O)(=O)Nc2cccc(C(CC(=O)O)NC(=S)Nc3cccc4nc5c(cc34)Cn3c-5cc4c(c3=O)COC(=O)[C@]4(O)CC)c2)c1` (some centres unmarked) [Example 3.16], the IC50 in test [2] (setting [11]) was determined as 0.051 µM; in test [3], 0.1 µM; in test [4], 0.7 µM; in [5], 0.5 µM; in test [6] it was 1 µM; in test [7], 0.3 µM. For the same compound, the IC50 in test [8] turned out to be 1 µM.
For `CC[C@@]1(OC(=O)[C@@H](NC(=O)CNC(=O)CCCC(=O)NC(CC(=O)O)c2cccc(NS(=O)(=O)c3cccc(NC(=N)N)c3)c2)C(C)C)C(=O)OCc2c1cc1n(c2=O)Cc2cc3ccccc3nc2-1` (some centres unmarked) [Example 3.19], the IC50 was 0.048 µM in [2] (setting [11]); 0.5 µM in test [3]; 4 µM in test [4]; 1.5 µM in test [5]; 2 µM in test [6]; 5 µM in [7]. Further, the IC50 in [8] was 6 µM.
`CC[C@@]1(OC(=O)[C@@H](NC(=O)[C@H](Cc2cnc[nH]2)NC(=O)Nc2cccc(-c3ccc(C[C@H](NS(=O)(=O)CC45CCC(CC4=O)C5(C)C)C(=O)O)cc3)c2)C(C)C)C(=O)OCc2c1cc1n(c2=O)Cc2cc3ccccc3nc2-1` (some centres unmarked) [Example 2.7]: the IC50 in test [2] was determined as 0.086 µM; in test [3], 0.6 µM; in test [4], 5 µM; in [5] it was 0.9 µM; in [6], 0.9 µM; in test [7], 0.8 µM. For the same compound, the IC50 in test [8] was determined as 3 µM.
